Assay results published in paper PMC5931107, “Clinical pharmacodynamic/exposure characterisation of the multikinase inhibitor ilorasertib (ABT-348) in a phase 1 dose-escalation trial” (British Journal of Cancer, 2018).
Marks after values point to notes of the source that are not given here.

Columns and labels:
[1] = Plasma pharmacokinetics, Arm I (oral QD), phase 1 trial; assay type: in vivo, human; conditions: for AUC(0-t): AUCt
Description: Pharmacokinetics of ilorasertib were evaluated in the dose-escalation cohort on blood samples that were collected on cycle 1 days 1 and 15. Parameters determined: Cmax, time to Cmax (Tmax), terminal phase elimination half-life (t1/2), clearance, apparent oral clearance (CL/F), and area under the plasma concentration-time curve from time 0 to time of last measurable concentration (AUCt) and from time 0 to infinity (AUC∞). For Arm I, blood samples were collected prior to dosing and at 0.5, 1, 2, 3, 4, 6, 8, 10 or 12, and 24 h after dosing on cycle 1 days 1 and 15; of note, for institutions not able to collect the 10- or 12-h post-dose sample, the 24-h sample was replaced with 22-h and 28-h post-dose samples. In Arm II, for the first dose, blood samples were collected pre-dose and at 1, 2, 3, and 4 h post-dose on cycle 1 days 1 and 15; for the second dose, samples were collected pre-dose and at 1, 2, 3, 4, 18, and 24 h after second dose on cycle 1 days 1 and 15. In Arm III, blood samples were collected prior to infusion, at 1 h 55 min (just before end of infusion), and at 0.5, 1, 2, 4, 6, 8, 10, and 24 h after end of infusion on cycle 1 days 1 and 15; here also, for institutions not able to collect the 8-h or 10-h after-end-of-infusion samples, the 24-h sample was replaced with 22-h and 28-h post-dose samples. The liquid chromatography (LC)-mass spectrometry (MS)/MS method was developed and validated in the Bioanalysis Department of AbbVie. Fifty microliter of human plasma (K2EDTA as anticoagulant) was fortified with 300 μL of deuterium-stable labelled internal standard and mixed well. A HybridSPE precipitation plate (50 mg/96 wells, Supelco Analytical, Munich, Germany) was used to directly load and elute (under slight vacuum) the fortified samples into a clean collection plate. Samples were dried before reconstitution with 100 μL of 20/80 (v/v) acetonitrile/water, and injected for LC-MS/MS analysis. A Halo C8 (Wilmington, DE, USA; 2.7 μm, 2.1 × 30 mm) was used on an Agilent 1290 Infinity UPLC pump (Agilent Technologies, Santa Clara, CA) to carry out the separation. An isocratic condition with 25/75/0.1 (v/v/v) acetonitrile/water/98% formic acid was used as the mobile phase. The flow rate was set to be 0.6 mL/min. An MPS 3 C ([…] Ruhr, Germany) autosampler was used to introduce samples onto the UPLC system. An API 4000 mass spectrometer (Applied Biosystems, Foster City, CA) was used in the multiple reactions monitoring mode for the detection and quantitation of analyte. Descriptive statistics were used for demographic variables. The numbers and percentages of patients with treatment-emergent AEs (TEAEs) were tabulated using the Medical Dictionary for Regulatory Activities version 16.0 system organ class and preferred term, and further classified according to CTCAE version 4.0 criteria. The safety data set included all patients who received one or more doses of ilorasertib. The pharmacokinetic data set included all patients who received one or more doses of ilorasertib and had one or more pharmacokinetic samples. Values for pharmacokinetic parameters were determined using non-compartmental methods, with data analysed separately for each arm. A repeated measures analysis was performed for Tmax and dose-normalised Cmax, AUCt, and AUC∞. The model included random effects for patient and fixed effects for dose level, day, and the interaction of dose level and day. To assess effects of exposure on pharmacodynamic biomarkers, Cmax was employed as the directly measured marker of exposure for the rapid changes in DBP and PlGF pre-steady-state, while AUC∞ reflected exposure variability at the time of post-multiple-dose skin biopsy. Descriptive statistics were used to summarise ECOG performance status. The efficacy data set included all patients who received one or more doses of ilorasertib.

[2] = tested on: PDGFR-β; set-up: method as in PMID 22935731; conditions: 1 mM ATP; read-out: Biochemical IC50 (95% confidence limits); cited from earlier work
[3] = tested on: Aurora A; set-up: method as in PMID 22935731; conditions: Aurora A autophosphorylation, nocodazole-arrested HeLa cells; read-out: Cellular PD marker IC50 (95% confidence limits); cited from earlier work
[4] = tested on: Aurora B; set-up: method as in PMID 22935731; conditions: Aurora B autophosphorylation, nocodazole-arrested HeLa cells; read-out: Cellular PD marker IC50 (95% confidence limits); cited from earlier work
[5] = tested on: Aurora C; set-up: method as in PMID 22935731; conditions: Aurora C autophosphorylation, nocodazole-arrested HeLa cells; read-out: Cellular PD marker IC50 (95% confidence limits); cited from earlier work
[6] = tested on: VEGFR3; set-up: method as in PMID 22935731; conditions: read-out: Cellular PD marker IC50 (95% confidence limits); cited from earlier work
[7] = tested on: PDGFR-α; set-up: method as in PMID 22935731; conditions: PDGFR-α cellular phosphorylation, ligand stimulated; read-out: Cellular PD marker IC50 (95% confidence limits); cited from earlier work

Nc1ncc(-c2cnn(CCO)c2)c2scc(-c3ccc(NC(=O)Nc4cccc(F)c4)cc3)c12 [ilorasertib, Ilorasertib]
t1/2 (harmonic mean) ([1]; Arm I PO QD all doses, day 1, N=21): 12.2 ± 6.9^d h
half-life ([1]; human, in vivo, Mean t1/2): ~12 h
Tmax ([1]; human, in vivo, Time of peak plasma concentration): ~4 h
Dose proportionality of exposure (Cmax and AUC) ([1]; human, in vivo, iv): approximately dose proportional
half-life ([1]; human, in vivo, po, 10 mg, t1/2 (harmonic mean)): 11.7 ± 1.4 h
AUCt ([1]; human, in vivo, po, 20 mg): 1.76 (3.23, 0.29) μg•h/mL
AUC∞ ([1]; human, in vivo, po, 20 mg): 1.46 (2.41, 0.51) μg•h/mL
Cmax ([1]; human, in vivo, po, 20 mg): 0.08 (0.14, 0.02) μg/mL
Tmax ([1]; human, in vivo, po, 20 mg): 5.0 (4.0, 6.0) h
AUC(0-t) ([1]; human, in vivo, po, 20 mg): 1010 ng·h/mL
AUC(0-inf) ([1]; human, in vivo, po, 20 mg): 2260 ng·h/mL
Tmax ([1]; human, in vivo, po, 20 mg, Tmax): 5 h
AUCt ([1]; human, in vivo, po, 40 mg): 1.15 µg·h/mL
AUC∞/dose ([1]; human, in vivo, po, 40 mg): 41.0 ng·h/mL/mg
CL/F ([1]; human, in vivo, po, 40 mg): 24.4 L/h
AUC(0-t) ([1]; human, in vivo, po, 40 mg): 640 ng·h/mL
AUC(0-inf) ([1]; human, in vivo, po, 40 mg): 1640 ng·h/mL
Tmax ([1]; human, in vivo, po, 40 mg, Tmax): 8 h
half-life ([1]; human, in vivo, po, 40 mg, t1/2 (harmonic mean)): 11.5 h
AUCt ([1]; human, in vivo, po, 80 mg): 1.59 ± 1.04 µg·h/mL
AUC∞ ([1]; human, in vivo, po, 80 mg): 2.75 ± 2.15 µg·h/mL
t1/2 (harmonic mean) ([1]; human, in vivo, po, 80 mg): 16.8 ± 2.8 h
AUC(0-t) ([1]; human, in vivo, po, 80 mg): 1900 ± 1100 ng·h/mL
AUC(0-inf) ([1]; human, in vivo, po, 80 mg): 2820 ± 1540 ng·h/mL
Cmax ([1]; human, in vivo, po, 80 mg, Cmax): 220 ± 100 ng/mL
Tmax ([1]; human, in vivo, po, 80 mg, Tmax): 4 ± 2 h
half-life ([1]; human, in vivo, po, 80 mg, t1/2 (harmonic mean)): 16 ± 1.8 h
AUCt ([1]; human, in vivo, po, 120 mg): 2.25 ± 0.61 µg·h/mL
AUC∞ ([1]; human, in vivo, po, 120 mg): 4.31 ± 2.38^c μg•h/mL
Cmax ([1]; human, in vivo, po, 120 mg): 250 ± 140 ng/mL
Tmax ([1]; human, in vivo, po, 120 mg): 4.1 ± 2.2 h
AUC(0-t) ([1]; human, in vivo, po, 120 mg): 3600 ± 2500 ng·h/mL
AUC(0-inf) ([1]; human, in vivo, po, 120 mg): 5400 ± 2620 ng·h/mL
Cmax ([1]; human, in vivo, po, 120 mg, Cmax): 490 ± 330 ng/mL
Tmax ([1]; human, in vivo, po, 120 mg, Tmax): 3.8 ± 2.2 h
AUC∞ ([1]; human, in vivo, po, 140 mg): 4.13 (4.96, 3.31)^a μg•h/mL
Cmax ([1]; human, in vivo, po, 140 mg): 330 ± 190 ng/mL
Tmax ([1]; human, in vivo, po, 140 mg): 10.1 ± 12.3 h
t1/2 (harmonic mean) ([1]; human, in vivo, po, 140 mg): 15.8 ± 23.6 h
AUC(0-inf) ([1]; human, in vivo, po, 140 mg): 5400 ± 1800 ng·h/mL
Cmax ([1]; human, in vivo, po, 140 mg, Cmax): 240 ± 130 ng/mL
half-life ([1]; human, in vivo, po, 140 mg, t1/2 (harmonic mean)): 10.1 h
Tmax ([1]; human, in vivo, po, 180 mg): 2.0 h
t1/2 (harmonic mean) ([1]; human, in vivo, po, 180 mg): 11.6 h
Tmax ([1]; human, in vivo, po, 180 mg, Tmax): 4 ± 2 h
half-life ([1]; human, in vivo, po, 180 mg, t1/2 (harmonic mean)): 9.5 ± 2.7 h
Tmax ([1]; human, in vivo, po, Tmax): 4.2 ± 1.8 h
half-life ([1]; human, in vivo, po, t1/2 (harmonic mean)): 14 ± 4 h
IC50 [6]: 2 nM
IC50 [7]: 16 nM
